Assay results: patent US5554630A, “Benzimidazole compounds” (NeuroSearch A/S, priority 1993, dated 1996)
Where two headings read alike, the source gives them in different places.

How the values were obtained:
[1] = biological target: benzodiazepine receptor (GABAA receptor); experiment: in vitro inhibition of 3H-flunitrazepam binding (rat cerebral cortex membranes); design: species or system rat (male Wistar
From the text: At present two types of GABA receptors are known, the GABAA and the GABAB receptors. […] Activation of GABA receptors leads to alternations in membrane potential (hyperpolarization). The GABAA receptors are associated with chloride influx through its associated and integrated chloride channel, whereas GABAB receptor activation indirectly alters potassium and calcium channels as well as modifies second messenger production. The GABAA recognition sites can be activated by GABA, muscimol; and isoguvacine for example, but not by GABAB agonists such as for example baclofen. The modulatory GABAA recognition site at the benzodiazepine receptor sites can be selectively radiolabelled with 3H-flunitrazepam. The affinity of various potential ligands for the benzodiazepine receptor sites can thus be evaluated by estimating the ability of test compounds to displace 3H-flunitrazepam.
Tissue preparations are performed at zero to four degrees Celsius. Cerebral cortex from male Wistar rats (150-200 g) is homogenized in 2 times 10 ml Tris-HCl, 30 mM at pH 7.4 The resulting suspension is centrifuged at 40,000 g for 15 minutes. The pellet is washed three times with buffer, centrifuged at two degrees Celsius at 40,000 g for ten minutes. The washed pellet is homogenized in 2 times 10 ml of buffer and is thereafter incubated on a water bath at 37° C. for 30 minutes and is thereafter centrifuged at 40,000 g for 10 minutes. The pellet is then homogenized with buffer and is centrifuged at 0° C. for 10 minutes at 40,000 g. The final pellet is resuspended in 30 ml buffer and the preparation may thereafter be stored at -20° C. In the test situation the membrane preparation is thawed and centrifuged at 2° C. for ten minutes at 48,000 g. The pellet is then washed two times with 2 times 10 ml 50 mM Tris-citrate at pH 7.1 using an Ultra-Turrax homogenizer and centrifuged at 48,000 g for 10 minutes. The hereby obtained pellet is resuspended in 50 mM Tris-citrate at pH 7.1,500 ml buffer per gram of original tissue, and is then used for binding assays. Aliquots of 0.5 ml tissue is added to 0.025 ml of 3H-flunitrazepam, final concentration of 1 nM, and is mixed and incubated for 40 minutes at 2° C. Non-specificbinding is determined using clonazepam, at 100 ng/ml final concentration. After incubation 5 ml of icecold buffer is added to the samples and these are poured directly onto Whatman GF/C glass fibre filters under suction and is immediately washed with 5 ml icecold buffer. The amount of radioactivity on the filters is determined by conventional liquid scintillation counting. Specific binding is total binding minus non specific binding. Test value is calculated as the IC50 which is equivalent to the concentration which inhibits the specific binding by 50 percent.
The method used to determine in vitro inhibition of ^3 H-flunitrazepam binding is presented under the heading of Biology.

[2] = tested on: GABAA receptor-ion channel complex (benzodiazepine receptor, mouse forebrain); experiment: in vivo inhibition of 3H-flunitrazepam binding in mouse forebrain; design: species or system mouse (female NMRI); conditions: i.p. 10 min before i.v. 3H-FNM, mice killed 20 min later, 30 min
[3] = tested on: GABAA receptor-ion channel complex; conditions: background statement, in vitro; cited from earlier work
[4] = first table, 1 nM 3H-flunitrazepam, 40 min at 2° C, read-out: IC50
[5] = second table (R6/R11), 3H-flunitrazepam, read-out: in-vitro binding IC50

SMILES | IC50 [1, 4] | IC50 [1, 5] | in-vivo binding ED50 [2] | binding to the GABAA receptor-ion channel complex (in words) [3]
CN1C(=O)c2ccccc2-n2cnc3cc(C(F)(F)F)cc1c32 [Compound 2f, 4-trifluoromethyl-6,7-dihydro-6-methyl-7-oxo-benzimidazo[3,4-ab][1,4]benzodiazepine] | 5.4 nM | – | – | –
FC(F)(F)c1ccc2c(c1)ncn2-c1cccc(-n2ccnc2)c1 [Compound 3a, 1-(3-(1-Imidazolyl)-phenyl)-5 trifluoromethylbenzimidazole] | – | 16 nM | 7.3 mg/kg | –
CC(C)OC(=O)c1ccc2c(c1)ncn2-c1cccc(-n2ccnc2)c1 [Compound 4a] | – | 11 nM | > 10.0 mg/kg | –
Cc1ccc2c(c1)ncn2-c1cccc(-n2ccnc2)c1 [Compound 5a, 1-[3-(1-imidazolyl)-phenyl]-5-methyl-benzimidazole] | 1.2 nM | 1.2 nM | 0.8 mg/kg | –
CC(C)(C)c1ccc2c(c1)ncn2-c1cccc(-n2ccnc2)c1 [Compound 6a, 1-[3-(1-imidazolyl)-phenyl]-5-t-butyl-benzimidazole] | 2.4 nM | 2.4 nM | 2.1 mg/kg | –
Cc1cn(-c2cccc(-n3cnc4cc(C(C)(C)C)ccc43)c2)cn1 [Compound 8a] | – | 11 nM | – | –
c1ccc(-c2ccc3c(c2)ncn3-c2cccc(-n3ccnc3)c2)cc1 [Compound 9a, 1-[3-(1-imidazolyl)-phenyl]-5-phenyl-benzimidazole] | 7.4 nM | 7.2 nM | 8.9 mg/kg | –
CC(C)c1ccc2c(c1)ncn2-c1cccc(-n2ccnc2)c1 [Compound 14a, 1-[3-(1-imidazolyl)-phenyl]-5-i-propyl-benzimidazole] | 0.6 nM | 0.6 nM | 1.2 mg/kg | –
Ic1ccc2c(c1)ncn2-c1cccc(-c2cccnc2)c1 [Compound 18a, 1-[3-(3-pyridyl)-phenyl]-5-iodo-benzimidazole] | 1.7 nM | 1.7 nM | 1.5 mg/kg | –
CC(C)(C)c1ccc2c(c1)ncn2-c1cccc(-c2cccnc2)c1 [Compound 22a, 1-[3-(3-pyridyl)-phenyl]-5-t-butyl-benzimidazole] | – | 10 nM | 16.3 mg/kg | –
O=[N+]([O-])c1ccc2c(c1)ncn2-c1cccc(-c2cccnc2)c1 [Compound 24a] | – | 40 nM | 6.1 mg/kg | –
Cc1noc(-c2cccc(-n3cnc4cc(C(C)(C)C)ccc43)c2)n1 [Compound 33a] | – | 13 nM | 8.2 mg/kg | –
CC(C)c1ccc2c(c1)ncn2-c1cccc(-n2cnc3ccccc32)c1 [Compound 34a, 1-[3-(1-benzimidazolyl)-phenyl]-5-i-propyl-benzimidazole] | 4.3 nM | 4.3 nM | 2.8 mg/kg | –
Cc1nccn1-c1cccc(-n2cnc3cc(-c4ccccc4)ccc32)c1 [Compound 38a, 1-[3-(1-(2-methylimidazolyl))-phenyl]-5-phenyl-benzimidazole] | 9 nM | 9 nM | 2.6 mg/kg | –
FC(F)(F)c1ccc2c(c1)ncn2-c1cccc(-n2cnc3ccccc32)c1 [Compound 39a, 1-[3-(1-benzimidazolyl)-phenyl]-5-trifluoromethyl-benzimidazole] | 9.2 nM | 9.2 nM | 7.5 mg/kg | –
O=CNc1ccc2c(c1)ncn2-c1cccc(-n2ccnc2)c1 [Compound 41a] | – | 13 nM | > 10.0 mg/kg | –
c1cncc(-c2cccc(-n3cnc4cc(-c5ccoc5)ccc43)c2)c1 [Compound 45a, 1-[3-(3-pyridyl)-phenyl]-5-(3-furanyl)-benzimidazole] | 1.2 nM | 1.4 nM | 1.9 mg/kg | –
O=Cc1ccc2c(c1)ncn2-c1cccc(-c2cccnc2)c1 [Compound 50a, 1-(3-(3-pyridyl)phenyl)-5-formylbenzimidazole] | – | 37 nM | > 3 mg/kg | –
ON=Cc1ccc2c(c1)ncn2-c1cccc(-c2cccnc2)c1 [Compound 52a, 1-(3-(3-pyridyl)phenyl)-5-aldoximobenzimidazole] | – | 3.3 nM | 1.6 mg/kg | –
c1cncc(-c2cccc(-n3cnc4cc(-c5nc(C6CC6)no5)ccc43)c2)c1 [Compound 53a] | – | 28 nM | 24.0 mg/kg | –
NC(=O)NN=Cc1ccc2c(c1)ncn2-c1cccc(-c2cccnc2)c1 [Compound 55a, 1-(3-(3-pyridyl)phenyl)-5-semicarbazonobenzimidazole] | – | 7.6 nM | > 3.0 mg/kg | –
c1cncc(-c2cccc(-n3cnc4cc(-n5ccnc5)ccc43)c2)c1 [Compound 56a] | – | 22 nM | 6.8 mg/kg | –
c1cncc(-c2cccc(-n3cnc4cc(-c5ccco5)ccc43)c2)c1 [Compound 57a, 1-[3-(3-pyridyl)-phenyl]-5-(2-furanyl)-benzimidazole] | – | 4.3 nM | 4.8 mg/kg | –
COCc1ccc2c(c1)ncn2-c1cccc(-c2cccnc2)c1 [Compound 58a] | – | 15 nM | 1.7 mg/kg | –
CON=Cc1ccc2c(c1)ncn2-c1cccc(-c2cccnc2)c1 [Compound 59a, 1-[3-(3-pyridyl)-phenyl]-5-methylaldoximo-benzimidazole] | – | 2 nM | 1.04 mg/kg | –
CC(C)c1ccc2c(c1)ncn2-c1cccc(-c2cccnc2)c1 [Compound 60a, 1-[3-(3-pyridyl)-phenyl]-5-i-propyl-benzimidazole] | – | 4.2 nM | 2.2 mg/kg | –
CN1C(=O)CN=C(c2ccccc2F)c2cc([N+](=O)[O-])ccc21 [^3 H-FNM] | – | – | – | selectively and with high-affinity
